Activity calls are given as the source filed them. No cut-off for these calls is given here.
Key:
[1] = Inhibition of Wnt/beta-catenin signaling in mouse CT26 cells assessed as reduction in Axin2 expression incubated for 24 hrs by qPCR analysis; details: CT26, 24 h
CT26 [2] = experiment: Antiproliferative activity against mouse CT26 cells assessed as reduction in cell viability incubated for 48 hrs by CCK-8 assay; details: CT26, 48 h
[3] = target: T1, beta-catenin-B-cell lymphoma 9 protein complex (Homo sapiens, UniProt P35222); experiment: Inhibition of beta-catenin (unknown origin) to BCL9-FAM (unknown origin) protein-protein interaction preincubated for 2 hrs followed by BCL9 addition and measured after 2 hrs by fluorescence polarization assay; assay type: protein-complex assay
T1 sequence (P35222 whole entry): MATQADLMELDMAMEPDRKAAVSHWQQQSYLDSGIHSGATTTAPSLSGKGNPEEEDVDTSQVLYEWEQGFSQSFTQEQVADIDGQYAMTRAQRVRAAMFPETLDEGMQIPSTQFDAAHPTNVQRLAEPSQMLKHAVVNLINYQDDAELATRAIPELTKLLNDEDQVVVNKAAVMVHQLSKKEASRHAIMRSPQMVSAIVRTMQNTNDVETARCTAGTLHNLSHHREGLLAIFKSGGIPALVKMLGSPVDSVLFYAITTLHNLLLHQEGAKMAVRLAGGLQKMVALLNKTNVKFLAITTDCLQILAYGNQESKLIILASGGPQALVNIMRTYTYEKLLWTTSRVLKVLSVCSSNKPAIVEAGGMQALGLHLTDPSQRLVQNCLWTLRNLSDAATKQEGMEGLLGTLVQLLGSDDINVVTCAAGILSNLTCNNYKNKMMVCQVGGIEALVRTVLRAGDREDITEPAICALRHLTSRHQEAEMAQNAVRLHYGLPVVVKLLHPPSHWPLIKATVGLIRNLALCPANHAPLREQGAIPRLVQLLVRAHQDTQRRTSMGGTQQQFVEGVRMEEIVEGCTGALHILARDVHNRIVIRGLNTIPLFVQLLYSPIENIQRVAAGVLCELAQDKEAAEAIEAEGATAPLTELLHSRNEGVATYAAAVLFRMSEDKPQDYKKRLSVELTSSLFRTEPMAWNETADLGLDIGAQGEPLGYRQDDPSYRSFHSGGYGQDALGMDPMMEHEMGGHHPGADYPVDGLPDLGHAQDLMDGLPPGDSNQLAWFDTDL
T1 sequence (O00512 whole entry): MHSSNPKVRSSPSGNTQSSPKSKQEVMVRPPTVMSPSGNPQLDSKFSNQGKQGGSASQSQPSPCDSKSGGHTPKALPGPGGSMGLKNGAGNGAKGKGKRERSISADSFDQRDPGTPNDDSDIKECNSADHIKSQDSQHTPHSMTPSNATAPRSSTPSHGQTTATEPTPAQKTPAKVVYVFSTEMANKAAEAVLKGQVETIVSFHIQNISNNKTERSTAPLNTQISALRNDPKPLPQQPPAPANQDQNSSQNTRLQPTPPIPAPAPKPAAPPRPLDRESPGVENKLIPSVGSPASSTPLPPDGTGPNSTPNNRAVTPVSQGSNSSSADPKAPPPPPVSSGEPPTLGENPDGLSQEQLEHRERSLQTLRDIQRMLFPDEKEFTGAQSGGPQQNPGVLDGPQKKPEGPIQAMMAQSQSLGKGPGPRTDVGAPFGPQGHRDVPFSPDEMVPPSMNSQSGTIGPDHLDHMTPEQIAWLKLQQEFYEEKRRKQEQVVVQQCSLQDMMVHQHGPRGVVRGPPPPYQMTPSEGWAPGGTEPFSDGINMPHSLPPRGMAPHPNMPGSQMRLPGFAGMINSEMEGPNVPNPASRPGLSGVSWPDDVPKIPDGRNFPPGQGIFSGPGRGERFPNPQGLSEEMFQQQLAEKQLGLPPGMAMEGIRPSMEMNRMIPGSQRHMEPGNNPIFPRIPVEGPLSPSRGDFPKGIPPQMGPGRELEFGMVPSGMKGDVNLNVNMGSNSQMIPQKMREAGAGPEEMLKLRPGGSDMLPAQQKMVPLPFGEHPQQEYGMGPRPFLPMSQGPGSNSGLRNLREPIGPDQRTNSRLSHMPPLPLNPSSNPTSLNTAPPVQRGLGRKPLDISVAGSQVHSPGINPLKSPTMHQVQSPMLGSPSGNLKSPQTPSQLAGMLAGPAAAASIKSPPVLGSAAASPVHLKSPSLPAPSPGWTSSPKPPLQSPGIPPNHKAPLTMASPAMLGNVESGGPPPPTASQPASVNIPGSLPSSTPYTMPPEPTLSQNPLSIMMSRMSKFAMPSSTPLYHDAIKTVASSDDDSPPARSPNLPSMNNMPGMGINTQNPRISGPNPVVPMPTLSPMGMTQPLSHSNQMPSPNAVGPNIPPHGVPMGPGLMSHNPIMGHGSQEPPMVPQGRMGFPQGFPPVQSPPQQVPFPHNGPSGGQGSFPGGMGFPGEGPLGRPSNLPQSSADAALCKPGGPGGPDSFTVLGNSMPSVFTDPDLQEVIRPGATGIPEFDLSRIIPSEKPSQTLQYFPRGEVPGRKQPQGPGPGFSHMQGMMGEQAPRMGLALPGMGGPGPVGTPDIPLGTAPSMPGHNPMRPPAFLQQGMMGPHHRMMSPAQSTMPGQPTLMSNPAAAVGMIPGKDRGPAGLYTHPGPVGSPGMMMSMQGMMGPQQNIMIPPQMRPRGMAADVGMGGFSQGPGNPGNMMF

[4] = Inhibition of Wnt/beta-catenin signaling in human HCT-116 cells assessed as reduction in Axin2 expression incubated for 24 hrs by qPCR analysis; details: HCT-116, 24 h
[5] = Toxicity in BALB/c mouse assessed as body weight loss at 30 mg/kg, ip administered once daily measured after 14 days; assay type: organism-based; details: in vivo, 336 h, time 14 day
CT26 [6] = experiment: Inhibition of Wnt/beta-catenin signaling in mouse CT26 cells assessed as reduction in Axin2 expression incubated for 24 hrs by Western blot analysis; assay type: cell-based; details: dose 5-20 µM
[7] = Inhibition of Wnt/beta-catenin signaling in human HCT116 cells incubated for 24 hrs by TCF/LEF reporter assay; details: HCT-116, 24 h
CT26 [8] = experiment: Antitumor activity against mouse CT26 cells implanted in BALB/c mouse assessed as tumor growth inhibition at 30 mg/kg, ip administered once daily and measured on day 14; assay type: functional; details: CT26, 336 h, time 14 day, read-out: TGI
HCT-116 = experiment: Antiproliferative activity against human HCT-116 cells assessed as reduction in cell viability incubated for 48 hrs by CCK8 assay; details: HCT-116, 48 h
[9] = Inhibition of Wnt/beta-catenin signaling in BCL9 knockdown mouse CT26 cells assessed as reduction in Axin2 expression incubated for 24 hrs by qPCR analysis; details: CT26, 24 h
HEK293 = experiment: Antiproliferative activity against HEK293 cells assessed as reduction in cell viability incubated for 48 hrs by CCK8 assay; details: Homo sapiens, HEK293, 48 h
[10] = Induction of immune microenvironment in BALB/c mouse spleen assessed as increase in granzyme B at 5 to 10 uM after 24 hrs by flow cytometry analysis (reference value: 16.7 %); assay type: functional; details: dose 5-10 µM
[11] = Drug concentration in human HCT-116 cells at 2 uM incubated for 24 hrs by HPLC-MS analysis; assay type: ADME, cell-based; details: hct-116, 24 h
[12] = Drug concentration in human HCT-116 cells assessed as retention ratio at 2 uM incubated for 24 hrs by HPLC-MS analysis; assay type: ADME, cell-based; details: hct-116, 24 h
CT26 [13] = experiment: Antitumor activity against mouse CT26 cells implanted in BALB/c mouse assessed as downregulation of interleukin-10 gene expression at 30 mg/kg, ip administered once daily and measured on day 14 by qPCR analysis; assay type: functional, organism-based; details: time 14.0 day
RKO = experiment: Antiproliferative activity against human RKO cells assessed as reduction in cell viability incubated for 48 hrs by CCK8 assay
CT26 [14] = experiment: Antitumor activity against mouse CT26 cells implanted in BALB/c mouse assessed as increase in granzyme B expression at 30 mg/kg, ip administered once daily and measured on day 14 by qPCR analysis; assay type: functional, organism-based; details: time 14.0 day
CT26 [15] = details: Mus musculus, dose 30.0 mg/kg, route ip, time 14.0 day
Description: In vivo inhibition of Wnt/beta-catenin signaling in mouse CT26 cells implanted in BALB/c mouse assessed as reduction in Axin2 expression at 30 mg/kg, ip administered once daily and measured on day 14 by qPCR analysis

CT26 [16] = experiment: Antitumor activity against mouse CT26 cells implanted in BALB/c mouse assessed as induction of immune microenvironment at 30 mg/kg, ip administered once daily and measured on day 14 by qPCR analysis; assay type: functional, organism-based; details: time 14.0 day
CT26 [17] = experiment: Induction of apoptosis in mouse CT26 cells assessed as late apoptosis at 5 to 40 uM incubated for 24 hrs by annexin V and PI staining based flow cytometry analysis; assay type: functional, cell-based; details: dose 5-40 µM
CT26 [18] = experiment: Induction of apoptosis in mouse CT26 cells assessed as early apoptosis at 5 to 40 uM incubated for 24 hrs by annexin V and PI staining based flow cytometry analysis; assay type: functional, cell-based; details: dose 5-40 µM

SMILES: O=c1c(O)c(-c2ccc(O)c(OCCCN3CCCCCC3)c2)oc2cc(O)cc(O)c12
- IC50 [1]: 34.7 µM
- IC50 (CT26 [2]): 35 µM
- IC50 [3]: 20.1 µM

SMILES: O=c1c(O)c(-c2ccc(O)c(OCCCN3CCOCC3)c2)oc2cc(O)cc(O)c12
- IC50 [1]: 6.29 µM
- IC50 (CT26 [2]): 7.85 µM

SMILES: O=c1c(O)c(-c2ccc(O)c(OCCN3CCCC3)c2)oc2cc(O)cc(O)c12
- IC50 [1]: 17.6 µM
- IC50 (CT26 [2]): 8.2 µM
- IC50 [3]: 56.8 µM

SMILES: CN1CCN(CCCOc2cc(O)c3c(=O)c(O)c(-c4ccc(O)c(O)c4)oc3c2)CC1
- IC50 [3]: 9.13 µM

SMILES: CCN(CC)CCCOc1cc(-c2oc3cc(O)cc(O)c3c(=O)c2O)ccc1O
- IC50 [1]: 11.2 µM
- IC50 (CT26 [2]): 23.7 µM
- IC50 [3]: 11.7 µM

SMILES: O=c1c(O)c(-c2ccc(O)c(O)c2)oc2cc(OCCCN3CCOCC3)cc(O)c12
- IC50 [3]: 12.3 µM

SMILES: O=c1c(O)c(-c2ccc(O)c(O)c2)oc2cc(O)cc(O)c12 [QUERCETIN]
- IC50 [4]: 3.57 µM
- Activity [5]: Non-Toxic
- inhibition (CT26 [6]): Dose-Dependent Effect
- IC50 [7]: 4.71 µM
- inhibition in vivo at 30 mg/kg (CT26 [8]): 69.4%
- IC50 (HCT-116): 10.4 µM
- IC50 [1]: 7.7 µM
- IC50 [9]: 23.5 µM
- IC50 (CT26 [2]): 14.4 µM

SMILES: CN1CCN(CCOc2cc(-c3oc4cc(O)cc(O)c4c(=O)c3O)ccc2O)CC1
- IC50 [1]: 17.8 µM
- IC50 (CT26 [2]): 11.7 µM
- IC50 [3]: 78.9 µM

SMILES: O=c1c(O)c(-c2ccc(O)c(OCCCN3CCCC3)c2)oc2cc(O)cc(O)c12
- IC50 [1]: 19.2 µM
- IC50 (CT26 [2]): 6.26 µM
- IC50 [3]: 25.7 µM

SMILES: COc1cc(OCCCN2CCOCC2)c2c(=O)c(O)c(-c3ccc(O)c(O)c3)oc2c1
- IC50 [3]: 6.09 µM

SMILES: O=c1c(O)c(-c2ccc(O)c(OCCN3CCOCC3)c2)oc2cc(O)cc(O)c12
- IC50 [1]: 38.4 µM
- IC50 (CT26 [2]): 9.96 µM
- IC50 [3]: 30.2 µM

SMILES: COc1cc(OCCCN2CCN(C)CC2)c2c(=O)c(O)c(-c3ccc(O)c(O)c3)oc2c1
- IC50 [3]: 9.69 µM

SMILES: O=c1c(O)c(-c2ccc(O)c(OCCN3CCCCC3)c2)oc2cc(O)cc(O)c12
- IC50 [1]: 23.1 µM
- IC50 (CT26 [2]): 8.67 µM
- IC50 [3]: 31.1 µM

SMILES: CCN(CC)CCOc1cc(-c2oc3cc(O)cc(O)c3c(=O)c2O)ccc1O
- IC50 [1]: 40.7 µM
- IC50 (CT26 [2]): 11.8 µM
- IC50 [3]: 27.9 µM

SMILES: O=c1c(O)c(-c2ccc(O)c(O)c2)oc2c(-c3ccccc3)c(O)cc(O)c12
- IC50 [3]: 18.7 µM

SMILES: O=C1[C@H](Cc2ccc(O)cc2)N2C(=O)CCN(C(=O)NCc3ccccc3)[C@H]2CN1Cc1cccc2ccccc12
- Activity [5]: Non-Toxic
- inhibition in vivo at 30 mg/kg (CT26 [8]): 40.8%

SMILES: O=c1c(O)c(-c2ccc(O)c(OCCCN3CCCCC3)c2)oc2cc(O)cc(O)c12
- IC50 [1]: 29.7 µM
- IC50 (CT26 [2]): 7.18 µM
- IC50 [3]: 18.6 µM

SMILES: CN1CCN(CCCOc2cc(-c3oc4cc(O)cc(O)c4c(=O)c3O)ccc2O)CC1
- IC50 (HEK293): 17.7 µM
- IC50 [4]: 9.71 µM
- Activity [10]: 31.1%
- Drug uptake [11]: 0.63 µM
- Activity [5]: Non-Toxic
- inhibition (CT26 [6]): Dose-Dependent Effect
- Drug uptake [12]: 31.31%
- Activity (CT26 [13]): Active
- IC50 [7]: 15.2 µM
- IC50 (RKO): 26.7 µM
- Activity (CT26 [14]): Active
- inhibition (CT26 [15]): Active
- inhibition in vivo at 30 mg/kg (CT26 [8]): 81.4%
- IC50 (HCT-116): 4.4 µM
- Activity (CT26 [16]): Active
- IC50 [1]: 2.81 µM
- Activity (CT26 [17]): Active
- Activity (CT26 [18]): Active
- IC50 [9]: 27.9 µM
- IC50 (CT26 [2]): 3.21 µM

SMILES: O=c1c(O)c(-c2ccc(O)c(OCCN3CCCCCC3)c2)oc2cc(O)cc(O)c12
- IC50 [1]: 13.9 µM
- IC50 (CT26 [2]): 7.04 µM
- IC50 [3]: 37.4 µM

SMILES: O=c1c(O)c(-c2ccc(O)c(O)c2)oc2c(-c3ccc(O)cc3)c(O)cc(O)c12
- IC50 [3]: 4.46 µM
